Measured values taken from publication PMC10747602, “Dose Response, Dosimetric, and Metabolic Evaluations of Replacement PFAS Perfluoro-(2,5,8-trimethyl-3,6,9-trioxadodecanoic) Acid (HFPO-TeA)” (Toxics, 2023).
Several values for one entry are separate records, joined by “and”; a condition that tells them apart may be missing. Equal entries are not always repeated. Where two headings read alike, the source gives them in different places.

Columns and labels:
[1] = parameters: method as in PMID 18661093; conditions: male rats, 5 mg/kg/day orally for 28 days; cited from earlier work
[2] = male mice, 2.5 mg/kg/day orally for 28 days; cited from earlier work
[3] = parameters: method as in PMID 21948869, PMID 36309054; conditions: cited from earlier work
[4] = Hepatocyte metabolic stability (clearance) assay, human hepatocytes; conditions: human, hepatocytes, 1000 nM
Experimental: (§1) Information on the chemicals and materials used in the hepatocyte metabolic work can be found in Supplementary Text S9 and Table S3. In vitro evaluations of hepatocyte metabolic stability were performed in human and rat hepatocytes, as previously described. Briefly, pooled, cryopreserved hepatocyte suspensions were thawed, assessed for viability, and then diluted in William’s medium E containing dexamethasone and cell maintenance cocktail B to achieve a cell density of 50,000 cells/100 µL. The assay was started by adding hepatocyte suspensions to wells of 96-well polypropylene plates containing an equal volume of media with 2 µM of analyte (final assay concentration: 1 µM). Plates were placed in a 37 °C cell culture incubator (5% CO2) on a shaker set to 200 rpm. Time points assessed were T0, T15, T30, T60, T120, and T240 min. At each time point, the plates were removed from the shaker and the incubates were crashed with an equal volume of ice-cold ACN containing 1.2% FA and 16 ng/mL of ^13C3 -HFPO-DA. After chilling and centrifugation at 4122× g, the supernatants were transferred to new collection plates and stored at −70 °C until analysis for the parent compound on the Waters instrumentation described below. Immediately prior to analysis, samples were thawed, vortexed, and centrifuged at 4200× g, and then diluted 1:4 in 95:5 H2O/ACN with 2.5 mM of ammonium acetate. Negative controls, including no cell controls and metabolically inactivated hepatocytes, were run concurrently to assess the chemical stability over the time course.
(§2) Intrinsic clearance (Clint; hepatic clearance) calculations are detailed in Supplementary Text S9 [57].
(§3) Targeted, quantitative analysis of in vitro hepatocyte metabolic stability and plasma protein binding assay samples was conducted on a Waters Xevo-TQS micro mass spectrometer (Waters, Milford, MA, USA) ultra-high-performance liquid chromatography tandem mass spectrometry system (UPLC-MS/MS), modified with a PFAS analysis kit. Samples were analyzed in negative ion mode with UniSpray ionization. A CORTECS T3 column (Waters CORTECS, 3 × 100 mm, particle size 2.7 µm) was used for chromatographic separation with a flow rate of 0.6 mL/min and a temperature of 55 °C. Gradient elution was used with eluent A (95:5 H2O/ACN) and eluent B (95:5 ACN/H2O) with 2.5 mM of ammonium acetate. The gradient is available in Table S11. Additional details for MS parameters are found in Table S12 and monitored transitions are found in Table S13.
(§4) Table S2: Data processing parameters used with Sciex MarkerView 1.3.1.
(§5) Support ing Text S9: Hepatocyte Metabolic Stability Assay Materials, Chemicals, and Calculations
(§6) Pooled human and rat cryopreserved primary hepatocyte suspensions were both obtained from
(§7) BioIVT, a US Food and Drug Administration-licensed and inspected donor center, and produced using
(§8) non-transplantable tissue.
(§9) William’s E media, dexamet hasone (98% pure), and cell maintenance cocktail B were obtained from
(§10) Thermo Fisher Scientific (Waltham, MA, USA), the OptiThaw hepatocyte kit from Sekisui/Xenotech
(§11) (Tokyo, Japan), and the trypan blue s (Sekisui/ Xenotech, Tokyo, Japan) and the trypan blue solution from […]

human hepatocytes = test: as above; conditions: 1000 nM; for Negative Control Data, No cells (NC), Ln Concentration / Negative Control Data, Heat Treated (HT), Ln Concentration / Ln Concentration: Rep 1-3
Experimental: as §1, §2, §3, §4, §5, §6, §7, §8, §9, §10, §11

[5] = Hepatocyte metabolic stability (clearance) assay, rat hepatocytes; conditions: both, Sprague Dawley, rat, hepatocytes
Experimental: as §1, §2, §3, §4, §5, §6, §7, §8, §9, §10, §11

rat hepatocytes = test: as above; conditions: 1000 nM
Experimental: as §1, §2, §3, §4, §5, §6, §7, §8, §9, §10, §11

O=C(O)C(F)(F)C(F)(F)C(F)(F)C(F)(F)C(F)(F)C(F)(F)C(F)(F)F [PFOA, perfluorooctanoic acid]
Kp [1]: 5.88 | Kp [2]: 1.54 | underestimation of Css values by previous IVIVE evaluations [3]: > 100 ×

O=S(=O)(O)C(F)(F)C(F)(F)C(F)(F)C(F)(F)C(F)(F)C(F)(F)C(F)(F)C(F)(F)F [PFOS, perfluorooctane sulfonic acid]
underestimation of Css values by previous IVIVE evaluations [3]: > 100 ×

CCOc1ccc(NC(C)=O)cc1 [Phenactin, phenacetin, reference compound]
hepatocyte CLint at 1 µM ([4]; Background-Subtracted Clint, human hepatocytes): 8.8 µL/min/1e6 cells | hepatocyte CLint at 1 µM ([4]; Clint, human hepatocytes, not background-subtracted): 12.1 µL/min/1e6 cells | half-life at 1 µM ([4]; HT-Background Half Life, heat treated human hepatocytes): 7.1 h | half-life at 1 µM ([4]; Half Life, human hepatocytes, time in min): 1.92 h | Negative Control Data, No cells (NC), Ln Concentration (human hepatocytes; 15 min): 3.8649 and 3.8943 and 3.8643 | Negative Control Data, No cells (NC), Ln Concentration (human hepatocytes; 240 min): 3.9162 and 4.0144 and 3.9729 | HT Background k (human hepatocytes; heat treated human hepatocytes): -0.0016 | Negative Control Data, Heat Treated (HT), Ln Concentration (human hepatocytes; human hepatocytes, 15 min): 4.4085 and 4.9735 and 5.3748 | Negative Control Data, Heat Treated (HT), Ln Concentration (human hepatocytes; human hepatocytes, 240 min): 4.6160 and 4.4891 and 4.5540 | Ln Concentration (human hepatocytes; human hepatocytes, time 0 min): 3.7764 and 3.7975 and 3.7223 | Ln Concentration (human hepatocytes; human hepatocytes, time 15 min): 3.8137 and 3.7544 and 3.6623 | Ln Concentration (human hepatocytes; human hepatocytes, time 30 min): 3.5799 and 3.7106 and 3.6378 | Ln Concentration (human hepatocytes; human hepatocytes, time 60 min): 3.3014 and 3.5121 and 3.4541 | Linear Regression Best-Fit Slope (ln concentration vs time) (human hepatocytes; human hepatocytes, time in min): -0.006025 | half-life at 1000 nM [5]: 1.44 h | hepatocyte CLint at 1000 nM [5]: 16.1 µL/min/1e6 cells | Negative Control Data, Heat Treated (HT), 15 min (rat hepatocytes; heat treated rat hepatocytes, 15 min, Ln concentration, Rep 1-3): 3.7605 and 3.8293 and 3.8230 | Negative Control Data, Heat Treated (HT), 240 min (rat hepatocytes; heat treated rat hepatocytes, 240 min, Ln concentration, Rep 1-3): 3.8801 and 3.8626 and 3.3989 | Negative Control Data, No cells (NC), 15 min (rat hepatocytes; no cells, 15 min, Ln concentration, Rep 1-3): 3.7121 and 3.7753 and 3.7677 | Negative Control Data, No cells (NC), 240 min (rat hepatocytes; no cells, 240 min, Ln concentration, Rep 1-3): 3.8252 and 3.8743 and 4.0157 | Ln Concentration, 0 min (rat hepatocytes; suspended rat hepatocytes, time 0 min, Rep 1-3): 3.7431 and 3.7883 and 3.8093 | Ln Concentration, 15 min (rat hepatocytes; suspended rat hepatocytes, time 15 min, Rep 1-3): 3.7497 and 3.8776 and 3.8997 | Ln Concentration, 30 min (rat hepatocytes; suspended rat hepatocytes, time 30 min, Rep 1-3): 3.5148 and 3.4871 and 3.5444 | Ln Concentration, 60 min (rat hepatocytes; suspended rat hepatocytes, time 60 min, Rep 1-3): 3.0012 and 3.3979 and 3.4757 | Ln Concentration, 120 min (rat hepatocytes; suspended rat hepatocytes, time 120 min, Rep 1-3): 2.7575 and 2.7517 and 2.9423 | Ln Concentration, 240 min (rat hepatocytes; suspended rat hepatocytes, time 240 min, Rep 1-3): 2.0042 and 1.7029 and 2.0503 | Linear Regression Best-Fit Slope (Ln concentration vs time) (rat hepatocytes; suspended rat hepatocytes, time in min): -0.008025
